Measurements published in publication PMC11542721, “Molecular properties, including chameleonicity, as essential tools for designing the next generation of oral beyond rule of five drugs” (ADMET & DMPK, 2024).
Like-named read-outs stand apart in the source and are kept apart here.

How the values were obtained:
[1] = system: Bcl-xL (B-cell lymphoma extra-large); design: method as in PMID 32677976; conditions: cancer cells, preclinical studies; cited from earlier work
[2] = cited from earlier work
[3] = mouse; cited from earlier work
[4] = BRlogD chromatographic lipophilicity (octanol/water surrogate)
[5] = IAM chromatography (log kw^IAM and Δ log kw^IAM); assay type: physicochemical; conditions: for log kw^IAM: IAM column, extrapolated to 0% organic solvent; for Δ log kw^IAM: polarity descriptor
Description: Furthermore, RP-HPLC methods generate biomimetic environments. For example, immobilized artificial membrane (IAM) chromatography, first introduced by Charles Pidgeon and his colleagues, is used to simulate biological cell membranes. IAM columns consist of a monolayer of phosphatidylcholine covalently bound to an inert silica support . The reference descriptor is the logarithm of the capacity factor at 0% organic solvent (extrapolated value), named log kW^IAM. In the IAM system, the retention of charged molecules also depends on the electrostatic interactions with the phospholipid heads.
Without entering the method details that can be retrieved in the literature, Δ log kw^IAM represents the polarity of the analyte.

[6] = Ionization behaviour from variation of log k'80 PLRP-S at three pHs; assay type: physicochemical; conditions: for A/B: acid or base profile: log k'80 PLRP-S at acidic, neutral and basic pH
Description: The ionization constant (usually reported as pKa) is an important parameter for evaluating ionizable molecules since it may have a decisive impact on the in vitro ADME properties. […] Since the experimental determination of pKa is not a trivial assay and a certain degree of expertise is required, Caron’s group observed that the ionization behaviour (not the pKa) of a molecule can be obtained by monitoring the variation of the log of the capacity factor in the PLRP-S system (log k'80 PLRP-S) vs. the pH [15]. […] In many cases, ionization is completely overlooked, and in some instances, it is predicted using standard calculators not designed for large, flexible molecules.
Then, we focused on experimental descriptors. We first explored the ionization behavior of the three PROTACS by monitoring the variation in log k'80 PLRP-s at three pHs.

[7] = Chamelogk chromatographic chameleonicity descriptor (PLRP-S); assay type: physicochemical; conditions: Exp. minus Ext. log k' 100 PLRP-S
Experimental: Therefore, we recently implemented a chromatographic descriptor, Chamelogk, that measures chameleonicity in a unique and dynamic system. To obtain Chamelogk (Figure 5B), the first step involves the experimental determination of the capacity factor (log k' PLRP-S) at 50, 60, and 70 % of acetonitrile. Then, the linear correlation between the log k' PLRP-S and the percentage of MeCN is determined. The equation derived from the linear correlation is then applied to extrapolate the capacity factor at 100 % (called Ext. log k’ 100 PLRP-S). Then, the experimental value at 100 % MeCN is measured (named Exp. log k’ 100 PLRP-S) and the difference with the extrapolated value is calculated. Thus, Chamelogk is defined as the capacity factor difference (Δ log k') between the experimental log k' measured at 100 % MeCN (Exp. log k' 100) and the extrapolated value (Ext. log k’ 100), as shown by Equation 2 and Figure 5B.

[8] = preclinical models; cited from earlier work
[9] = system: enzalutamide-insensitive tumours; design: method as in PMID 36508999; conditions: cited from earlier work
ER (estrogen receptor) = system: ER (estrogen receptor); design: method as in doi:10.1016/j.annonc.2023.09.567; conditions: tumor cell lines, in vitro; cited from earlier work
advanced breast cancer = system: advanced breast cancer; design: method as in doi:10.1016/j.annonc.2023.09.567; conditions: phase I and II, cited from earlier work
[10] = RP-HPLC, surrogate of octanol/water

Row | SMILES | Degradation of Bcl-xL [1] | Absorption [2] | Oral bioavailability F [3] [%] | chromatographic logD [4, 10] | log kw^IAM [5] | A/B: acid or base profile [6] | Chamelogk [7] | chromatographic logD [4] | Oral bioavailability F [8] [%] | Δ log kw^IAM [5] | Tumour growth in vivo [9] | Ionization state at pH 7 [6] | ER degradation (ER (estrogen receptor)) | Clinical activity (advanced breast cancer; advanced breast cancer patients) | Tolerability (advanced breast cancer; all doses orally administered)
1 | Cc1ncsc1-c1ccc([C@H](C)NC(=O)[C@@H]2C[C@@H](O)CN2C(=O)[C@@H](NC(=O)CCCCCC(=O)N2CCN(CC[C@H](CSc3ccccc3)Nc3ccc(S(=O)(=O)NC(=O)c4ccc(N5CCN(CC6=C(c7ccc(Cl)cc7)CCC(C)(C)C6)CC5)cc4)cc3S(=O)(=O)C(F)(F)F)CC2)C(C)(C)C)cc1 [DT2216] | selectively induced degradation of Bcl-xL | Intravenous | < 0.03 | > 6 | > 4 | ampholyte |  |  |  |  |  |  |  |  | 
2 | Cc1sc2c(c1C)C(c1ccc(Cl)cc1)=N[C@@H](CC(=O)Nc1ccc(OCCOCCOCCOCCNc3cccc4c3C(=O)N(C3CCC(=O)NC3=O)C4=O)cc1)c1nnc(C)n1-2 (stereo partly drawn) [ARV-825] |  |  |  |  |  | nonionizable |  |  |  |  |  |  |  |  | 
3 | N#Cc1ccc(O[C@H]2CC[C@H](NC(=O)c3ccc(N4CCC(CN5CCN(c6cc7c(cc6F)C(=O)N(C6CCC(=O)NC6=O)C7=O)CC5)CC4)nn3)CC2)cc1Cl (stereo partly drawn) [ARV-110, bavdegalutamide] |  | Oral |  |  | 3.20 | basic and Base | 0.99 | 4.25 | > 30 | 0.33 | significantly inhibited the growth | predominantly neutral |  |  | 
4 | O=C1CC[C@H](N2Cc3cc(N4CCN(CC5CCN(c6ccc([C@@H]7c8ccc(O)cc8CC[C@@H]7c7ccccc7)cc6)CC5)CC4)ccc3C2=O)C(=O)N1 [ARV-471, vepdegestrant] |  | Oral |  | 4.73 | 3.39 | basic and Base |  |  | > 30 | 0.07 |  | predominantly neutral | up to 97% | showed clinical activity | well tolerated
5 | C=C[C@@H]1C[C@]1(NC(=O)[C@@H]1C[C@@H](Oc2ncc(OC)c3ccc(Cl)cc23)CN1C(=O)[C@@H](NC(=O)OC(C)(C)C)C(C)(C)C)C(=O)NS(=O)(=O)C1CC1 [asunaprevir] |  |  |  |  |  | acidic |  |  |  |  |  |  |  |  | 
